US9663486B2, “Selectively substituted quinoline compounds” (EISAI R&D MANAGEMENT CO., LTD., priority 2013, dated 2017)

Legend:
human TLR8 = target: T1, human TLR8 (Homo sapiens, UniProt Q9NR97); assay: HEK-293 assay format, human TLR8 (CL097); assay type: cell-based; conditions: read-out: HEK/hTLR8 IC50
T1 construct: host or cells: HEK-293 stably expressing hTLR8, then transfected with pNiFty2(NF-kappaB)-luciferase
T1 sequence (Q9NR97 27-1041): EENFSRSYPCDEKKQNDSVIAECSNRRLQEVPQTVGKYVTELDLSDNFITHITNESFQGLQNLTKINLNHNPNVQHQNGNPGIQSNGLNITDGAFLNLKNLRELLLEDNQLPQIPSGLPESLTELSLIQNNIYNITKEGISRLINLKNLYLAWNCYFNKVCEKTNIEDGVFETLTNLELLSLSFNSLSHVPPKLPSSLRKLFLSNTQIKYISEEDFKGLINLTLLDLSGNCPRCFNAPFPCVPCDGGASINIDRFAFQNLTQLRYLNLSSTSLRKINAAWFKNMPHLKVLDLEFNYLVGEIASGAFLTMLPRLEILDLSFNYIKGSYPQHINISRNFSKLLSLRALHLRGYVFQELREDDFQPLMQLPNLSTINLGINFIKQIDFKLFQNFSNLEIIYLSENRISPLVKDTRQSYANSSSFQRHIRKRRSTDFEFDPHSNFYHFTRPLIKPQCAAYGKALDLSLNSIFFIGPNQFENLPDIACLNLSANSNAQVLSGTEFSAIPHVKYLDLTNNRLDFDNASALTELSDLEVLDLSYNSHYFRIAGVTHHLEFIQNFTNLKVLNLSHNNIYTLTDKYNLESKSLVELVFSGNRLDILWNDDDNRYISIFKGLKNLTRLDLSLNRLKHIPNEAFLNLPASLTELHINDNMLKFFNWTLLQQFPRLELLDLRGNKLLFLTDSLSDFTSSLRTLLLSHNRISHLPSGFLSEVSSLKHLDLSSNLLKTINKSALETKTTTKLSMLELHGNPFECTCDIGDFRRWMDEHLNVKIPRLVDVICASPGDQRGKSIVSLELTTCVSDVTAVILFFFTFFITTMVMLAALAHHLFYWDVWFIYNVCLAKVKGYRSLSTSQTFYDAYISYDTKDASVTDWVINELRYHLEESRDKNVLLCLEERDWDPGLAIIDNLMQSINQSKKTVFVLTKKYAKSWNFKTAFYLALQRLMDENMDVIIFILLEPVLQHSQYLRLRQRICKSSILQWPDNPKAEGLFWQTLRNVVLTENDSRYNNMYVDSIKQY
Description: HEK-293 cells (ATCC) were engineered to stably express a NF-kappaB transcription factor inducible E-selectin (ELAM-1) luciferase reporter derived from the plasmid pGL3 (Promega) containing base pairs −2241 bp to −254 bp from the promoter of the human E-selectin gene (Accession No. NM_000450). These cells were then subsequently engineered to stably and individually express human TLR4, TLR7 or TLR9 full-length ORF cDNAs. Human TLR4 cDNA (Accession No. NM_138554) was cloned into pcDNA 3.0 expression vector (Invitrogen). TLR4 transfected cells were also engineered to express human MD-2 co-receptor [MD-2 cDNA (Accession No. NM_015364) was cloned into the pEF-BOS vector] and were supplemented with 10 nM soluble CD14 (R&D Systems) in the media to optimize LPS responsiveness. Human TLR9 cDNA (Accession No. NM_017442) was cloned into the pBluescript II KS vector (Agilent). Human TLR7 cDNA (Accession No. NM_016562) was obtained from OriGene. HEK-293 cells stably expressing human TLR8 (Accession No. NM_138636) or mouse TLR7 (Accession No. NM_133211) were purchased from InvivoGen and were then stably transfected with pNiFty2(NF-kappaB)-luciferase reporter plasmid (InvivoGen). Each cell type was plated in Dulbecco's modified Eagle's medium (DMEM) containing 10% fetal bovine serum (FBS) at a density of 2.22×10^5 cells/ml into a 384-well plate and incubated for 2 days at 37° C., 5% CO2. […]

Human TLR7/8 = assay: Human PBMC cell-based assay, TLR7/8 (RNA-Ig), cytokine ELISA; conditions: PBMC assay data summary; ligand and analyte not given; read-out: Human PBMCs IC50
Procedure: Human peripheral blood mononuclear cells (PBMC) were isolated from freshly-drawn heparinized (10 USP units/ml, Hospira, Lakeforest, Ill.) healthy donor whole blood by density gradient (Histopaque® 1077, Sigma, Inc., St. Louis, Mo.). Briefly, 25 ml blood was diluted with 15 ml PBS (without Ca^2+, Mg^2+) in a 50 ml conical tube, and 12 ml Histopaque was underlaid using a spinal needle. Tubes were centrifuged for 45 minutes at 1200 rpm (350×g), and PBMC were collected from the buffy coat. Cells were then washed twice in PBS, and red blood cells were lysed by suspension in 5 ml ammonium chloride solution (1× Red Blood Cell Lysis Buffer, eBioscience) for 5 minutes at room temperature. After a final wash in PBS, PBMC were resuspended at a final concentration of 2×10^6/ml in RPMI-1640 media with L-glutamine (Invitrogen) and supplemented with 25 mM HEPES (Mediatech, Inc, Manassas Va.), 10% fetal bovine serum (HyClone, Logan, Utah), and Penicillin-Streptomycin-Glutamine (Mediatech) and plated at 100 ul/well (2×10^5 cells/well) in tissue culture treated 96-well plates (Falcon).
Antagonist compounds solubilized and serial diluted in 100% DMSO were added in triplicate to cells to yield a final concentration of 0.1% DMSO (v/v). Hydroxychloroquine (Acros Organics) solubilized and serial diluted in PBS was added in triplicate to cells. PBMC were incubated with antagonist compounds or HCQ for 30 minutes at 37° C., 5% CO2 before adding various TLR agonist reagents in 100 ul complete media per well as follows (final concentrations indicated): R848 (Resiquimod; GLSynthesis, Worcester, Mass.) at 1 uM for TLR7 and TLR8, Pam3CSK4 (InvivoGen) at 50 ng/ml for TLR1/2, LPS (Sigma) at 10 ng/ml for TLR4, and CpG-2216 (InvivoGen) at 5 ug/ml for TLR9. […] The resulting “RNA-Ig” stimulus was incubated at room temperature for 15-30 minutes before adding to cells. PBMC were incubated with the various TLR agonists for 20 hours at 37° C., 5% CO2. Cell culture supernatants were collected, and levels of various human cytokines were assessed as indicated by standard ELISA procedure according to the manufacturer's recommended protocol (BD Biosciences, Inc., San Diego, Calif.).

Human TLR9 = target: T2, Human TLR9 (Homo sapiens, UniProt Q9NR96); assay: Human PBMC cell-based assay, CpG-ODN stimulation, IL-6; parameters: endogenous in cells; host or cells: primary human PBMC from healthy donors; conditions: Hu PBMC; ligand CpG-ODN
T2 sequence (Q9NR96 26-1032): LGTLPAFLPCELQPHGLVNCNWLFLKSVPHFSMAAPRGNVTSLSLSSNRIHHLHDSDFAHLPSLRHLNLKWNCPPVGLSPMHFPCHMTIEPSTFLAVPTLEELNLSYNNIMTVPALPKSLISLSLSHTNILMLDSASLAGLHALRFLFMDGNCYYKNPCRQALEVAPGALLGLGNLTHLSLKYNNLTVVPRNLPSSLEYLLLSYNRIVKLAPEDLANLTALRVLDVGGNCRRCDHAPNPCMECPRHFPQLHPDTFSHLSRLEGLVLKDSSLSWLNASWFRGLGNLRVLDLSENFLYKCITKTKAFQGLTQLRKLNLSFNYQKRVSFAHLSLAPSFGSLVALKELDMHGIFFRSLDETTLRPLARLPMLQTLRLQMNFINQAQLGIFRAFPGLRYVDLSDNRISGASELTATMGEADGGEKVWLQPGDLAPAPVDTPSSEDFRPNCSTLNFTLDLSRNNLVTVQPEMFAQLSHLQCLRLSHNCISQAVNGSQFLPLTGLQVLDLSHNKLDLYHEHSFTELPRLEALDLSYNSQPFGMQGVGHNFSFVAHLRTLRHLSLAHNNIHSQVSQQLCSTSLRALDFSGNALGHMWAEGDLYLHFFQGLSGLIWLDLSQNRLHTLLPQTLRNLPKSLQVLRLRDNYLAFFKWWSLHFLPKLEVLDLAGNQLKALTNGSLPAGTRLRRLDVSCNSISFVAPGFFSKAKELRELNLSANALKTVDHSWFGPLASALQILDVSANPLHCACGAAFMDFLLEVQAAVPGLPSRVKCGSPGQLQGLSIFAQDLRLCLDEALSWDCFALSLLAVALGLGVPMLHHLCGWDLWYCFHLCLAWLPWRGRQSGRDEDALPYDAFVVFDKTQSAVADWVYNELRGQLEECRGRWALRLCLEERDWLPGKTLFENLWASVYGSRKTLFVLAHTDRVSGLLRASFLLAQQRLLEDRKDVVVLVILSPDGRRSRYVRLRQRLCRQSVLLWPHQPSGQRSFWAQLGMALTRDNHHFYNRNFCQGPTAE
Procedure: (§1) Human peripheral blood mononuclear cells (PBMC) were isolated from freshly-drawn heparinized (10 USP units/ml, Hospira, Lakeforest, Ill.) healthy donor whole blood by density gradient (Histopaque® 1077, Sigma, Inc., St. Louis, Mo.). Briefly, 25 ml blood was diluted with 15 ml PBS (without Ca^2+, Mg^2+) in a 50 ml conical tube, and 12 ml Histopaque was underlaid using a spinal needle. Tubes were centrifuged for 45 minutes at 1200 rpm (350×g), and PBMC were collected from the buffy coat. Cells were then washed twice in PBS, and red blood cells were lysed by suspension in 5 ml ammonium chloride solution (1× Red Blood Cell Lysis Buffer, eBioscience) for 5 minutes at room temperature. […]
(§2) Antagonist compounds solubilized and serial diluted in 100% DMSO were added in triplicate to cells to yield a final concentration of 0.1% DMSO (v/v). […] Cell culture supernatants were collected, and levels of various human cytokines were assessed as indicated by standard ELISA procedure according to the manufacturer's recommended protocol (BD Biosciences, Inc., San Diego, Calif.).

Human TLR4 = Human TLR4 (Homo sapiens, UniProt O00206); assay: Human PBMC cell-based assay, LPS stimulation, IL-6; parameters: endogenous in cells; host or cells: primary human PBMC from healthy donors; conditions: Hu PBMC; ligand LPS
Chain of Human TLR4 (O00206 24-839): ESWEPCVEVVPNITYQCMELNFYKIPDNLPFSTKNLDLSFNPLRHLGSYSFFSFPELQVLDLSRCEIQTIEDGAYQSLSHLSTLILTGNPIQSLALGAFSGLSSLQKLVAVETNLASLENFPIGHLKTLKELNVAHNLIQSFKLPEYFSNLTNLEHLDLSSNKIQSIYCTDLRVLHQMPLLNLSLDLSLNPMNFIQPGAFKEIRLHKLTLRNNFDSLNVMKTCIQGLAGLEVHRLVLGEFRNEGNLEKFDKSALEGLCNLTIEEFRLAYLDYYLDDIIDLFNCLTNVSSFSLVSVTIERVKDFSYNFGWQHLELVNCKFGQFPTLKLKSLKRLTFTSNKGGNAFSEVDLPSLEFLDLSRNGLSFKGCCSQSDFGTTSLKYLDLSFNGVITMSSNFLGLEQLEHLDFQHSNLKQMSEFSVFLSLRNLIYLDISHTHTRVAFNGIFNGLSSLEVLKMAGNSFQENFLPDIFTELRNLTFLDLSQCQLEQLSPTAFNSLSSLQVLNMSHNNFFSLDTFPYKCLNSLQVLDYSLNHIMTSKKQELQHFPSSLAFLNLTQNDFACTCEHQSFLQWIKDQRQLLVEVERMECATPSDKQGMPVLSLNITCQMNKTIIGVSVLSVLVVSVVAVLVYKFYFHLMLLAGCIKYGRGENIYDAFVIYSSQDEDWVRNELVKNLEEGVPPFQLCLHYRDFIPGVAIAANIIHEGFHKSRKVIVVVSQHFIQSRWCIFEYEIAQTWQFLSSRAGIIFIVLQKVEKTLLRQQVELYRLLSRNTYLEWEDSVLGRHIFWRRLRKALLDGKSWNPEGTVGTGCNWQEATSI
Chain of Human TLR4 (Q9Y6Y9 19-160 partner): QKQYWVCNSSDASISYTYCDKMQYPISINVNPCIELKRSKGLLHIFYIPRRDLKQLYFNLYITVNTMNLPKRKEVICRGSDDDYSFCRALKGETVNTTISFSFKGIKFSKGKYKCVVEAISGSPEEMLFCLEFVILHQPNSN
Procedure: as §1, §2

SMILES | IC50 (human TLR8) | IC50 (Human TLR7/8) | IC50 (Human TLR9) | IC50 (Human TLR4)
N#Cc1ccc(N2CCC[C@@H](N)C2)c2cccnc12 [ER-878921] | 0.074 µM | 0.09 µM |  | 
CCN(CCO)CCCC(C)Nc1ccnc2cc(Cl)ccc12 (stereo not shown) [HCQ, Hydroxychloroquine] |  |  | 0.15 to 0.3 µM | > 10 µM
